Data taken from patent US7166622B2, “Substituted phenylsulfonamide inhibitors of beta amyloid production” (Wyeth, priority 2002, dated 2007).

Key:
[1] = test system: CHO-K1 cells; assay: Toxicity in RRA (loss of luciferase signal); conditions: toxicity = loss of signal (<0.75 fold increase)
Procedure: The beta amyloid inhibitory activity of the compounds of the present invention was determined using the Repressor Release Assay (RRA).
“Fold Increase” refers to the amount of luciferase activity (measured in relative light units) over diluent control. “SEM” refers to the standard error of the mean for fold increase.

[2] = test system: beta amyloid production; assay: Repressor Release Assay (RRA); assay type: cell-based; conditions: for fold induction at 3 µg/mL: Conc 3 μg/ml; for APPI % of Example #98: relative to Example 98
Outline: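 CHO-K1 cells transiently co-transfected with pRSVO-luc and an APP-lacI construct, replated, then treated in duplicate for 36-48 h at 37 °C, 5% CO2. Compounds diluted in 25 mM Hepes, with Hepes/1% DMSO as diluent control. Luciferase read-out in relative light units; toxicity scored 1 non-toxic, 0 toxic.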

[3] = Conc 20 μg/ml, luciferase activity over diluent control, read-out: APPI Fold Increase
[4] = luciferase activity over diluent control, read-out: APPI Fold Increase
[5] = Conc 20 μg/ml, luciferase activity over diluent control
[6] = Conc 10 μg/ml, luciferase activity over diluent control, read-out: APPI Fold Increase

Structure (SMILES)	(%)APPI Toxicity ([1]; Conc 20 μg/ml)	fold induction at 20 µg/mL [2, 3]	other results
CC[C@](C)(CO)NS(=O)(=O)c1ccc(Cl)cc1 [Example 97, 4-chloro-N-[(1R)-1-(hydroxymethyl)-1-methylpropyl]benzenesulfonamide]	1 (1=non-toxic)	1.5	–
CC[C@H](C)[C@@H](CO)NS(=O)(=O)c1ccc(Br)cc1 [Example 98, 4-bromo-N-[(1S,2S)-1-(hydroxymethyl)-2-methylbutyl]-benzenesulfonamide]	1 (1=non-toxic)	–	(%)APPI Toxicity ([1]; Conc 3 μg/ml): 1 (1=non-toxic); (%)APPI Toxicity ([1]; Conc 10 μg/ml): 1 (1=non-toxic); fold induction at 3 µg/mL [2, 4]: 1.79
CCCCC(CO)NS(=O)(=O)c1ccc(Br)cc1 (centres unmarked) [Example 99, 4-bromo-N-[1-(hydroxymethyl)pentyl]benzenesulfonamide]	1 (1=non-toxic)	1.7	–
C[C@@H](NS(=O)(=O)c1ccc(Br)cc1)[C@@H](O)c1ccccc1 [Example 100, 4-bromo-N-[(1R,2S)-2-hydroxy-1-methyl-2-phenylethyl] benzenesulfonamide]	1 (1=non-toxic)	–	APPI Fold Increase [2, 5]: 1.6 fold; APPI % of Example #98 ([2]; Conc 20 μg/ml): 41%
O=S(=O)(N[C@H](CO)c1ccccc1)c1ccc(Br)cc1 [Example 101, 4-bromo-N-[(1S)-2-hydroxy-1-phenylethyl]benzenesulfonamide]	1 (1=non-toxic)	1.6	–
CC(C)C[C@H](CO)NS(=O)(=O)c1ccc(Br)cc1 [Example 102, 4-bromo-N-[(1R)-1-(hydroxymethyl)-3-methylbutyl]benzenesulfonamide]	1 (1=non-toxic)	1.5	–
O=S(=O)(NC1(CO)CCCC1)c1ccc(Cl)cc1 [Example 103, 4-chloro-N-[1-(hydroxymethyl)cyclopentyl]benzenesulfonamide]	1 (1=non-toxic)	2.6	–
CCCC(CO)NS(=O)(=O)c1ccc(Br)cc1 (centres unmarked) [Example 104, 4-bromo-N-[1-(hydroxymethyl)butyl]benzenesulfonamide]	1 (1=non-toxic)	1.5	–
CCCC(CO)NS(=O)(=O)c1cccc(Cl)c1 (centres unmarked) [Example 105, 3-chloro-N-[1-(hydroxymethyl)butyl]benzenesulfonamide]	–	–	(%)APPI Toxicity ([1]; Conc 10 μg/ml): 1 (1=non-toxic); fold induction at 10 µg/mL [2, 6]: 1.54
O=S(=O)(N[C@H](CO)CC1CCCCC1)c1cccc(Cl)c1 [Example 106, 3-chloro-N-[(1S)-2-cyclohexyl-1-(hydroxymethyl)ethyl]benzenesulfonamide]	1 (1=non-toxic)	1.6	–
CSCC[C@H](CO)NS(=O)(=O)c1cccc(Cl)c1 [Example 107, 3-chloro-N-[(1R)-1-(hydroxymethyl)-3-(methylthio)propyl]benzenesulfonamide]	–	–	(%)APPI Toxicity ([1]; Conc 1 μg/ml): 1 (1=non-toxic); fold induction at 1 µg/mL ([2]; Conc 1 μg/ml, luciferase activity over diluent control, read-out: APPI Fold Increase): 2.35
CC[C@@H](CO)NS(=O)(=O)c1cccc(Cl)c1 [Example 108, 3-chloro-N-[(1S)-1-(hydroxymethyl)propyl]benzene sulfonamide]	–	–	(%)APPI Toxicity ([1]; Conc 3 μg/ml): 1 (1=non-toxic); fold induction at 3 µg/mL [2, 4]: 1.66
CC(C)C[C@@H](CO)NS(=O)(=O)c1ccccc1F [Example 109, 2-fluoro-N-[(1S)-1-(hydroxymethyl)-3-methylbutyl]benzenesulfonamide]	1 (1=non-toxic)	1.9	–
CCCCC(CO)NS(=O)(=O)c1ccccc1F (centres unmarked) [Example 110, 2-fluoro-N-[1-(hydroxymethyl)pentyl] benzenesulfonamide]	1 (1=non-toxic)	–	APPI Fold Increase [2, 5]: 1.7 fold; APPI % of Example #98 ([2]; Conc 20 μg/ml): 46.5%
C[C@H](NS(=O)(=O)c1ccccc1F)[C@@H](O)c1ccccc1 [Example 111, 2-fluoro-N-[(1 S,2 S)-2-hydroxy-1-methyl-2-phenylethyl] benzenesulfonamide]	1 (1=non-toxic)	–	APPI Fold Increase [2, 5]: 1.7 fold; APPI % of Example #98 ([2]; Conc 20 μg/ml): 47.8%
O=S(=O)(N[C@H](CO)c1ccccc1)c1ccccc1F [Example 112, 2-fluoro-N-[(1S)-2-hydroxy-1-phenylethyl]benzene sulfonamide]	1 (1=non-toxic)	1.8	–
CC(C)C[C@H](CO)NS(=O)(=O)c1ccccc1F [Example 113, 2-fluoro-N-[(1R)-1-(hydroxymethyl)-3-methylbutyl]benzenesulfonamide]	1 (1=non-toxic)	1.6	–

Structure (SMILES)	(%)APPI Toxicity ([1]; Conc 20 μg/ml)	fold induction at 20 µg/mL [2, 3]	other results
O=S(=O)(NC1(CO)CCCC1)c1ccccc1F [Example 114, 2-fluoro-N-[1-(hydroxymethyl)cyclopentyl]benzenesulfonamide]	1 (1=non-toxic)	1.5	–
O=S(=O)(N[C@H](CO)CC1CCCCC1)c1ccccc1F [Example 115, N-[(1S)-2-cyclohexyl-1-(hydroxymethyl)ethyl]-2-fluorobenzenesulfonamide]	1 (1=non-toxic)	1.8	–
CSc1ccc([C@H](O)[C@H](CO)NS(=O)(=O)c2ccccc2F)cc1 [Example 116, 2-fluoro-N-{(1S,2S)-2-hydroxy-1-(hydroxymethyl)-2-[4-(methylthio)phenyl]ethyl}benzenesulfonamide]	1 (1=non-toxic)	1.6	–
O=S(=O)(N[C@H](CO)Cc1ccccc1)c1ccccc1F [Example 118, N-[(1S)-1-benzyl-2-hydroxyethyl]-2-fluorobenzenesulfonamide]	1 (1=non-toxic)	1.6	–
CC(C)[C@@H](CO)NS(=O)(=O)c1ccccc1F [Example 119, 2-fluoro-N-[(1S)-1-(hydroxymethyl)-2-methylpropyl]benzenesulfonamide]	1 (1=non-toxic)	1.5	–
O=S(=O)(NC1(CO)CCCCC1)c1ccc(Br)cc1 [Example 120, 4-Bromo-N-[1-(hydroxymethyl)-cyclohexyl]-benzenesulfonamide]	1 (1=non-toxic)	5	–
O=S(=O)(NC1(CO)CC2CCC1C2)c1ccc(Br)cc1 (centres unmarked) [Example 121, 4-bromo-N-[2-(hydroxymethyl)bicyclo[2.2.1.]hept-2-yl]benzenesulfonamide]	1 (1=non-toxic)	–	APPI Fold Increase [2, 5]: 1.7 fold; APPI % of Example #98 ([2]; Conc 20 μg/ml): 45.1%
O=S(=O)(NC1(CO)CCc2ccccc21)c1ccc(Br)cc1 (centres unmarked) [Example 122, 4-bromo-N-[1-(hydroxymethyl)-2,3-dihydro-1H-inden-1-yl]benzenesulfonamide]	1 (1=non-toxic)	1.5	–
O=S(=O)(NC1(CO)CCCCC1)c1ccc(Cl)cc1 [Example 123, 4-chloro-N-[1-(hydroxymethyl)cyclohexyl]benzenesulfonamide]	1 (1=non-toxic)	4.4	–
O=S(=O)(NC1(CO)CCc2ccccc21)c1ccc(Cl)cc1 (centres unmarked) [Example 124, 4-chloro-N-[1-(hydroxymethyl)-2,3-dihydro-1H-inden-1-yl]benzenesulfonamide]	1 (1=non-toxic)	2	–
O=S(=O)(NC(CO)(c1ccccc1)C1CCC1)c1ccc(Cl)cc1 (centres unmarked) [Example 125, 4-chloro-N-(1-cyclobutyl-2-hydroxy-1-phenylethyl)benzenesulfonamide]	1 (1=non-toxic)	1.8	–
CC[C@H](C)[C@H](NS(=O)(=O)c1ccc(F)cc1)C(C)O (stereo partly drawn) [Example 126, 4-fluoro-N-[(1S,2S)-1-(1-hydroxyethyl)-2-methylbutyl]benzenesulfonamide]	–	–	(%)APPI Toxicity ([1]; Conc 3 μg/ml): 1 (1=non-toxic); (%)APPI Toxicity ([1]; Conc 10 μg/ml): 1 (1=non-toxic); fold induction at 3 µg/mL [2, 4]: 1.54; fold induction at 10 µg/mL [2, 6]: 1.52
CC[C@H](C)[C@H](NS(=O)(=O)c1ccc(F)cc1)C(O)C1CCCC1 (stereo partly drawn) [Example 127, N-{(1S,2S)-1-[cyclopentyl(hydroxy)methyl]-2-methylbutyl}-4-fluorobenzenesulfonamide]	–	–	(%)APPI Toxicity ([1]; Conc 10 μg/ml): 1 (1=non-toxic); fold induction at 10 µg/mL [2, 6]: 2.97
CCCCC(O)[C@@H](NS(=O)(=O)c1ccc(F)cc1)[C@@H](C)CC (stereo partly drawn) [Example 130, 4-fluoro-N-{(1S)-2-hydroxy-1-[(1S)-1-methylpropyl]hexyl}benzenesulfonamide]	–	–	(%)APPI Toxicity ([1]; Conc 10 μg/ml): 1 (1=non-toxic); fold induction at 10 µg/mL [2, 6]: 2.4
CC[C@H](C)[C@H](NS(=O)(=O)c1ccc(F)cc1)C(O)c1ccccc1C (stereo partly drawn) [Example 131, 4-fluoro-N{(1S,2S)-1-[hydroxy-(2-methylphenyl)methyl]-2-methylbutyl}benzenesulfonamide]	–	–	(%)APPI Toxicity ([1]; Conc 10 μg/ml): 1 (1=non-toxic); APPI Fold Increase ([2]; Conc 10 μg/ml, luciferase activity over diluent control): 1.65 fold; APPI % of Example #98 ([2]; Conc 10 μg/ml): 64.57%
CC[C@H](C)[C@H](NS(=O)(=O)c1ccc(F)cc1)C(O)C(C)(C)C (stereo partly drawn) [Example 132, 4-fluoro-N-{(1S)-2-hydroxy-3,3-dimethyl-1-[(1S)-1-methylpropyl]butyl}benzenesulfonamide]	–	–	(%)APPI Toxicity ([1]; Conc 10 μg/ml): 1 (1=non-toxic); fold induction at 10 µg/mL [2, 6]: 1.54
C=CC(O)[C@@H](NS(=O)(=O)c1ccc(F)cc1)[C@@H](C)CC (stereo partly drawn) [Example 133, 4-fluoro-N-{(1S)-2-hydroxy-1-[(1S)-1-methylpropyl]-3-butenyl}benzenesulfonamide]	–	–	(%)APPI Toxicity ([1]; Conc 10 μg/ml): 1 (1=non-toxic); fold induction at 10 µg/mL [2, 6]: 1.79
